# Measured values from US20250333486A1, “Anti-HSP90 alpha antibody and uses thereof” (NATIONAL HEALTH RESEARCH INSTITUTES, priority 2021, published 2025).
# Tests used:
# [1] = tested on: ARPE-19 retinal pigmented epithelial cells; experiment: Retinal cell toxicity assay (MTS); type: cell-based, human; conditions: 72-h treatment, MTS; read-out: IC50 of cytotoxicity to ARPE-19 cells
# Experimental: ARPE-19 cells were seeded onto 96-well plates at a density of 4000 cells per well, and then treated in triplicate with various concentrations of 17-AAG or anti-HSP90α antibody HH01 for 72 h. The 3-(4,5-dimethylthiazol-2-yl)-5-(3-carboxymethoxyphenyl)-2-(4-sulfophenyl)-2H-tetrazolium (MTS; Sigma-Aldrich) assay was employed and OD490 was measured to evaluate cell viability upon each treatment.
# [2] = tested on: eHSP90α—TLR4 ligation; conditions: Chua et al., Cells 2020; cited from earlier work
# [3] = tested on: PANC-1 plus EndoMT cell grafts; experiment: Therapeutic efficacy in desmoplastic humanized mouse PDAC transplant model; type: in vivo; conditions: hHSC-transplanted ASID mice; antibody 5 mg/kg x3, gemcitabine 100 mg/kg x2, IV
# [4] = tested on: PANC-1 cells; experiment: Transwell invasion assay, rHSP90α-induced PANC-1 invasion; type: cell-based, human; conditions: 15 μg/ml rHSP90α plus 15 μg/ml peptide
# Experimental: In a 37° C. and 5% CO2 humidified incubator, cancer cells were subjected to serum starvation in 0.5% FBS-containing medium for 16 h, and then added […] After another 24 h, the treated cells were harvested as aliquots (1×10^5 cells per aliquot) in 0.5% FBS-containing culture medium, and then each aliquot was seeded into a top chamber of Transwell inserts pre-coated with 5-fold diluted Matrigel (BD Biosciences). Cells were allowed 16 h to invade through the Matrigel toward the bottom chambers containing culture medium plus 10% FBS. The filters of the Transwell inserts were then fixed and stained with Giemsa. Invasive cells on the lower side of filters were photographed using the Axiovert S100/AxioCam HR microscope system (Carl Zeiss, Oberkochen, Germany) and further quantified by the Image-Pro Plus software (Media Cybernetics, Inc., Silver Spring, MD, USA).
# [5] = tested on: PANC-1 cells; experiment: Cell spheroid-forming assay, rHSP90α-induced PANC-1 spheroids; type: cell-based, human; conditions: 15 μg/ml rHSP90α plus 15 μg/ml peptide
# Experimental: One thousand cancer cells were seeded onto each well of 24-well plates pre-coated with a 4-mm thick layer of 0.5% agarose. After incubation 24 h with serum-free medium at 37° C. plus a 5% CO2 humidified atmosphere, cells were added with PBS or 15 μg/ml of rHSP90α in the absence or presence of 10 μg/ml of control IgG or the tested anti-HSP90α antibody. The incubation was kept for 10-14 days with supplements of some fresh serum-free medium every 3 days. Finally, the cell spheroids characterized by tight, non-adherent, and >100 μm in diameter were photographed and counted under an Olympus IX 71 inverted microscope (Center Valley, PA, USA). The spheroid formation % was calculated by the formula: (number of cell spheroids/1000)×100%.
compound,measurement,setting,value
"C=CCNC1=C2C[C@@H](C)C[C@H](OC)[C@H](O)[C@@H](C)/C=C(\C)[C@H](OC(N)=O)[C@@H](OC)/C=C\C=C(/C)C(=O)NC(=CC1=O)C2=O [Clone 17-AAG, 17-AAG, reference compound]",IC50,[1],64.7 nM
CCCCCCCCOC(=O)c1cc(O)c(O)c(O)c1 [Octyl gallate],effect on EndoMT-derived CAFs and eHSP90α-induced macrophage M2-polarization and HSP90α expression,[2],inhibitory effect
Nc1ccn([C@@H]2O[C@H](CO)[C@@H](O)C2(F)F)c(=O)n1 [gemcitabine],tumor growth curves,[3],significantly repressed tumors after the second administration of gemcitabine
"peptide with a sequence of the a.a. 227-272 region of HSP90α: synthesized epitopes-containing peptide with the sequence of a.a. 227-272 of HSP90α (DKEVSDDEAEEKEDKEEEKEKEEKESEDKPEIEDVGSDEEEEKKDG; UniProt P07900 227-272, looked up, fragment)",rHSP90α-induced PANC-1 cell invasion,[4],competitively suppressed
same,rHSP90α-induced PANC-1 spheroid formation,[5],competitively suppressed
